Results on two compounds are retold here after paper PMC8998611, “Identification of Novel GSK-3β Hits Using Competitive Biophysical Assays” (International Journal of Molecular Sciences, 2022).

Test [1] deals with T1, LOK1 (Homo sapiens, UniProt O94804).
T1 construct: purchased Eurofins (Kinase Diversity Panel service)
In words: Eurofins Kinase Diversity Panel, LOK1. It is filed as biochemical. Conditions: 20 µM compound; ATP at Km ± 15 µM; read-out: inhibitory effect on LOK1. How it is done: (§1) To further characterize the inhibitory activity of the two selected fragments, the selectivity of G5 and G12 towards a panel of 58 kinases of the humane proteome was evaluated using the “Kinase screening and profiling” service of Eurofins, Luxembourg (Kinase Diversity Panel). […] Results are reported in Supplementary Figures S2 and S3.

Test [2] concerns the target T2, GSK-3β (Homo sapiens, UniProt P49841). Kind of test: GSK-3β kinetics, Lineweaver-Burk analysis of competition with ATP or substrate ULight-GS. It is filed as biochemical. Details: made in house; host or cells: Sf9 cells. Conditions: compound 20 and 50 μM; for mechanism of inhibition with respect to substrate ULight-GS: ATP 1 μM, ULight-GS 12.5-200 nM; for mechanism of inhibition with respect to ATP: ATP 0.25-4 μM, ULight-GS 50 nM. How it is done:
First, under a constant concentration of the substrate ULight-GS (50 nM), ATP concentrations were varied from 0.25 to 4 μM, and G5 and G12 were tested at 20 and 50 μM. […] Additionally, G5 and G12 (at 20 and 50 μM) were tested by keeping the ATP concentration constant (1 μM) and varying the substrate ULight-GS concentration from 12.5 to 200 nM.
To study the GSK-3β kinetics, the reaction mixture, varying concentrations of ATP (0.25–0.5–1–2–4 μM) or substrate (12.5–25–50–100–200 nM) versus test samples (20 and 50 μM), were incubated for 5, 15, 30, and 60 min at 23 °C, followed by the addition of the 6 mM EDTA and the anti-phospho-GS antibody according to the manufacturer’s protocol.
For GSK-3β kinetic experiments, initial velocities (V0) were determined and fitted to the Michaelis–Menten equation. To directly visualize G5 and G12 inhibition mode, a Lineweaver–Burk plot was generated according to the values obtained from the Michaelis–Menten analysis. […] Graphs and data analysis were performed using GraphPad Prism 8 software.

The test system of test [3] is CDKs. In words: Eurofins Kinase Diversity Panel, CDKs. It is filed as biochemical, human. The settings on record: 20 µM compound; ATP at Km ± 15 µM. How it is done: as §1
In test [4] the target is T2, GSK-3β. In words: LANCE Ultra TR-FRET GSK-3β kinase inhibition assay (ULight-GS phosphorylation). It is filed as biochemical. Conditions: 1 µM ATP, 50 nM ULight-GS; for inhibition at 1 µM: 1 μM compound; for inhibition at 1 µM / inhibition at 5 µM / inhibition at 50 µM / inhibition at 100 µM: mean ± SD; for inhibition at 5 µM: 5 μM compound; for inhibition at 50 µM: 50 μM compound; for inhibition at 100 µM: 100 μM compound; for IC50: dose-response 30 nM to 200 μM. How it is done:
To assess if the identified GSK-3β binders were also able to affect kinase activity, the inhibitory activity of the four identified hit compounds was tested at four concentrations (1-5-50-100 μM) using the LANCE® Ultra (Perkin Elmer, Waltham, MA, USA) time-resolved fluorescence resonance energy transfer (TR-FRET) assay. The assay measures the ability of GSK-3β to phosphorylate a specific substrate, human Muscle Glycogen Synthase (ULight-GS ([…]/pSer657)), in the presence and absence of the identified ligands. […] Specifically, IC50 values were (14.81 ± 0.55) μM and (15.25 ± 1.34) μ[…] and G12, respectively (Figure 5). The GSK-3β kinase assay was run in 384 well microplates (OptiPlate^TM-384, White, Perkin Elmer) with a total reaction volume of 20 μL. The inhibitory potency against human recombinant GSK-3β was evaluated using the LANCE® Ultra (Perkin Elmer) time-resolved fluorescence resonance energy transfer (TR-FRET) by measuring the phosphorylation of the specific substrate, human Muscle Glycogen Synthase (ULight-GS ([…]/pSer657)), according to the manufacturer's instructions. […] The reaction was initiated by adding 50 nM of the substrate ULight-[…] and 1 μM ATP. The mixture was incubated for 1 h at 23 °C. Afterward, the reaction was stopped by adding 8 mM EDTA. After 5 min, the anti-phospho-GS antibody labeled with europium chelate was added. 1 h later, the kinase reaction was monitored by irradiation at 320 nm, and the fluorescence was measured at 615 and 665 nm, using EnVision 2014 Multilabel Reader (PerkinElmer). The calculated signal ratio at 665/615 nm was proportional to the extent of ULight-GS phosphorylation. The compounds were screened at four concentrations (1-5-50-100 μM). For selected compounds, dose-response curves, ranging from 30 nM up to 200 μM, were performed. Dose-response curves were run in three independent experiments, each performed in three technical replicates. IC50 values (concentrations causing half-maximal response or enzyme inhibition) were determined by non-linear regression analysis of the Log [concentration]/response curves generated with mean replicate values using a four parameter Hill equation curve fitting with GraphPad Prism 8 (GraphPad Software Inc., San Diego, CA, USA).
In general terms: Time-resolved FRET reads energy transfer from a long-lived donor to a nearby acceptor.

Test [5] has as its target T3, MEK1 (Homo sapiens, UniProt Q02750).
T3 construct: purchased Eurofins (Kinase Diversity Panel service)
In words: Eurofins Kinase Diversity Panel, MEK1. It is filed as biochemical. The settings on record: 20 µM compound; ATP at Km ± 15 µM. How it is done: as §1

Test [6] addresses T4, AMPK1α (Homo sapiens, UniProt Q13131).
T4 construct: purchased Eurofins (Kinase Diversity Panel service)
Kind of test: Eurofins Kinase Diversity Panel, AMPK1α. It is filed as biochemical. Conditions: 20 µM compound; ATP at Km ± 15 µM. How it is done: as §1

The target of test [7] is T5, ABL (Homo sapiens, UniProt P00519).
T5 construct: purchased Eurofins (Kinase Diversity Panel service)
T5 sequence (P00519 whole entry): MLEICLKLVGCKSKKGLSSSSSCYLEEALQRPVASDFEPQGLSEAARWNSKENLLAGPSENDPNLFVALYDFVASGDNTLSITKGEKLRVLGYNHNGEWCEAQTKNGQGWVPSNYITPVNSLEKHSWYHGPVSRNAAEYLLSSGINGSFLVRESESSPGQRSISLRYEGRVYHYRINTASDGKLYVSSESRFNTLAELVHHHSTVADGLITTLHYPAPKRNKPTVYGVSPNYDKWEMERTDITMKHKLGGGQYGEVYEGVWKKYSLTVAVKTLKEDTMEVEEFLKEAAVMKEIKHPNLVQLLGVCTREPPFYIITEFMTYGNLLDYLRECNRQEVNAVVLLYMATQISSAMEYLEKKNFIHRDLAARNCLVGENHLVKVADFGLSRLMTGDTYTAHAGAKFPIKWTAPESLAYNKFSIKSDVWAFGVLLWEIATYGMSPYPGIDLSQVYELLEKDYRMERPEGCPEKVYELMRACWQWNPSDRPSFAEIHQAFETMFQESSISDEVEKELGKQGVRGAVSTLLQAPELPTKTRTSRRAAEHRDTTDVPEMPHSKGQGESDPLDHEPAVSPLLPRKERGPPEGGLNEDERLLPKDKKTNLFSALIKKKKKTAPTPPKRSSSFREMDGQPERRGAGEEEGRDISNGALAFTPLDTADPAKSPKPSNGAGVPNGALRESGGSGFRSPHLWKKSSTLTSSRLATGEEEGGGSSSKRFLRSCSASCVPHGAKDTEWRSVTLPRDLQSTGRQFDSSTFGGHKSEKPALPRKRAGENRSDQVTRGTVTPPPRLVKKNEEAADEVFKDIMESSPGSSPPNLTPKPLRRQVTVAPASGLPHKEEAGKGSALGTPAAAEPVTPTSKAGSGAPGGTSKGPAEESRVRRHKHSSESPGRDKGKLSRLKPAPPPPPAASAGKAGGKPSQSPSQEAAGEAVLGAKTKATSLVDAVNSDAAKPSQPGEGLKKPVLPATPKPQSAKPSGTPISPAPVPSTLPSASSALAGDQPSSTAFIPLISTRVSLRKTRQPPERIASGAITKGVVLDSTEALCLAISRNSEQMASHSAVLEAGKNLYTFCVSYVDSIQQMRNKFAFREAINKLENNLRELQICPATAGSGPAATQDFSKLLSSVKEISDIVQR
In words: Eurofins Kinase Diversity Panel, ABL. It is filed as biochemical. Conditions: 20 µM compound; ATP at Km ± 15 µM. How it is done:
as §1

The target of test [8] is T6, CDK9 (Homo sapiens, UniProt P50750).
T6 construct: purchased Eurofins (Kinase Diversity Panel service)
Kind of test: Eurofins Kinase Diversity Panel, CDK9. Conditions: 20 µM compound; ATP at Km ± 15 µM; read-out: inhibitory effect on CDK9. Format: biochemical. How it is done: as §1

Test [9] addresses T7, TAK1 (Homo sapiens, UniProt O43318).
T7 construct: purchased Eurofins (Kinase Diversity Panel service)
T7 sequence (O43318 1-303 limits assumed): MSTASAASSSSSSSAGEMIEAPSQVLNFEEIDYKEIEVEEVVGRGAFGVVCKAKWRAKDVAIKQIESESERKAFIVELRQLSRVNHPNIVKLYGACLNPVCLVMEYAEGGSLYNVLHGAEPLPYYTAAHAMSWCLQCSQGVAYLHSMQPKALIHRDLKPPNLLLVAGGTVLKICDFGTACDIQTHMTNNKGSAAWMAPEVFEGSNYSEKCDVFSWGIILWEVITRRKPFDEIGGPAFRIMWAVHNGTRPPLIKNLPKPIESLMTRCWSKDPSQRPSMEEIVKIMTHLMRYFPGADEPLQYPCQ
Kind of test: Eurofins Kinase Diversity Panel, TAK1. It is filed as biochemical. Conditions: 20 µM compound; ATP at Km ± 15 µM; read-out: inhibitory effect on TAK1. How it is done: as §1

Test [10] deals with T8, MLK1 (Homo sapiens, UniProt P80192).
T8 construct: purchased Eurofins (Kinase Diversity Panel service)
Kind of test: Eurofins Kinase Diversity Panel, MLK1. Format: biochemical. Conditions: 20 µM compound; ATP at Km ± 15 µM. How it is done: as §1

T2 sequence (P49841 whole entry): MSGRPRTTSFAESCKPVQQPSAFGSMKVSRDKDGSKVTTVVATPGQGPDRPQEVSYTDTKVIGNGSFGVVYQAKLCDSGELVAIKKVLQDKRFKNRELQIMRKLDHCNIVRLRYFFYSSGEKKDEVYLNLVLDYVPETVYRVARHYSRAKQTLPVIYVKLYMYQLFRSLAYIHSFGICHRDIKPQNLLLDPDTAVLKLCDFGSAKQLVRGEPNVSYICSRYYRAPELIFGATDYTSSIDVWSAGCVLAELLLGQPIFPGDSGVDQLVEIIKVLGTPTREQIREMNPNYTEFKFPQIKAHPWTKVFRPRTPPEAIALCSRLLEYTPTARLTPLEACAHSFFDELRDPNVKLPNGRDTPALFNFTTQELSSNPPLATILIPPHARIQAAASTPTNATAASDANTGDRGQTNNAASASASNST
T3 sequence (Q02750 whole entry): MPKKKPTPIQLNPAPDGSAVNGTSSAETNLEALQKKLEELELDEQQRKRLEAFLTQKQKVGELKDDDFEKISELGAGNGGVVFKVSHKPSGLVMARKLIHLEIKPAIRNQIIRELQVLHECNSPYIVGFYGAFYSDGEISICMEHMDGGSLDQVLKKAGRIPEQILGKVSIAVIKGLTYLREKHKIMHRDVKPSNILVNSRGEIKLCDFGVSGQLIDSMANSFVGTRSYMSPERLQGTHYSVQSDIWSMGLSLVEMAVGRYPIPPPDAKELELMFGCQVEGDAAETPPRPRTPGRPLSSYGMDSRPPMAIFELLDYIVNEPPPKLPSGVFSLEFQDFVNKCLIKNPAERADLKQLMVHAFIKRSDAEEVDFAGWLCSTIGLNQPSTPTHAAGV
T1 sequence (O94804 whole entry): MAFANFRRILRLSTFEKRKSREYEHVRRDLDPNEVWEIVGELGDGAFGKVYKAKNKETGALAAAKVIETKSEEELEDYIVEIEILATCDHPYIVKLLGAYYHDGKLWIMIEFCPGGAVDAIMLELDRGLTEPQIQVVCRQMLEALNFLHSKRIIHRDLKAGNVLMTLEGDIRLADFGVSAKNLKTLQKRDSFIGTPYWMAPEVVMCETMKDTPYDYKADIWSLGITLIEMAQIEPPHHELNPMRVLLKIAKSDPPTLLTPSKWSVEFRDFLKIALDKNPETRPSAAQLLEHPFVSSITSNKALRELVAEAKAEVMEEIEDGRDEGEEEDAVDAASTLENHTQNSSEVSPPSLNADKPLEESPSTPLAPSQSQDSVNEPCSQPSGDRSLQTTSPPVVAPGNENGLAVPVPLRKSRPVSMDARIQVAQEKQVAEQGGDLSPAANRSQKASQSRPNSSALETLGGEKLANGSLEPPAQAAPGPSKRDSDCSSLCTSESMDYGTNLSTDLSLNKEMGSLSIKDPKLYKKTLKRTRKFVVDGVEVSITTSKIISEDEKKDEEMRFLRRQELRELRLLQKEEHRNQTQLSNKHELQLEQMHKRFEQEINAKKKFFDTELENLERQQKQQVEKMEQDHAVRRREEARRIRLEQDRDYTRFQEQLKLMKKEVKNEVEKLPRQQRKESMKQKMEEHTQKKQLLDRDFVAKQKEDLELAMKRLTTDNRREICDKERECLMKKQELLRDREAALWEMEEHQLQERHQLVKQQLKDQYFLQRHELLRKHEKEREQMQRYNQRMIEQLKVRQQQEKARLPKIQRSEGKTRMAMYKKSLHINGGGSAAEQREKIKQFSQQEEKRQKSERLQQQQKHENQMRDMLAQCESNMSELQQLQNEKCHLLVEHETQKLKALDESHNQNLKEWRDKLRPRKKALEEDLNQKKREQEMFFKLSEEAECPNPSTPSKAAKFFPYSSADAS
T4 sequence (Q13131 whole entry): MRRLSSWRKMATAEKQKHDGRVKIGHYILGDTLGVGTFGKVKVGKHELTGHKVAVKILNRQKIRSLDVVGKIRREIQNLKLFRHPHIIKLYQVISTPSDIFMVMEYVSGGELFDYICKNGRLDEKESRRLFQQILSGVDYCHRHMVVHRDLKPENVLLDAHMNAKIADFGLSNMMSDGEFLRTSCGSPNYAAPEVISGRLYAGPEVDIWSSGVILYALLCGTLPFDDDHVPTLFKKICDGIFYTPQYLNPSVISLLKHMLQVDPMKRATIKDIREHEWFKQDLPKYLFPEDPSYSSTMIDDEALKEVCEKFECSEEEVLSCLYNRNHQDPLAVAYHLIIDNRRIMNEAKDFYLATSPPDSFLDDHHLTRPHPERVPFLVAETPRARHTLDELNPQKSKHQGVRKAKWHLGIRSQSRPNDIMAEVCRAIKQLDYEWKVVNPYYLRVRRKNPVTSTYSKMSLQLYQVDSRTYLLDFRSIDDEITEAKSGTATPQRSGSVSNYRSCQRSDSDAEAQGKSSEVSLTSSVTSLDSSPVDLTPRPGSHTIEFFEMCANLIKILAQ
T4 sequence (Q9Y478 whole entry partner): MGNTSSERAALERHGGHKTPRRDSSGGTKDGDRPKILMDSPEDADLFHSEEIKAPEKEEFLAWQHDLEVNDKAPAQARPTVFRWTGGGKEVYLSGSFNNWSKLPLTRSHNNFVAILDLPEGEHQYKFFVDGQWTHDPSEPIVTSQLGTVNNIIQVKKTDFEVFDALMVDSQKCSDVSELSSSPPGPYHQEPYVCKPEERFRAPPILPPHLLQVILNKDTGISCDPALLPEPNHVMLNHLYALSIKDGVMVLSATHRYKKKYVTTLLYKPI
T4 sequence (P54619 whole entry partner): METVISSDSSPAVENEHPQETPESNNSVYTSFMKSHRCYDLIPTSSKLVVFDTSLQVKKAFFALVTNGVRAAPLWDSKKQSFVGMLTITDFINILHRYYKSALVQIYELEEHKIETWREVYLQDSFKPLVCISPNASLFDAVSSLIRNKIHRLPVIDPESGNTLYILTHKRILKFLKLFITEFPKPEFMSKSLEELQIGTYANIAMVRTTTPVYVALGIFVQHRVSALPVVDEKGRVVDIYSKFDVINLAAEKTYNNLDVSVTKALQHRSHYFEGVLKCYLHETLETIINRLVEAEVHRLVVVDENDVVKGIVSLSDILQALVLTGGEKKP

On to `CS(=O)(=O)N1CC(c2nc(N)ncc2-c2ccc(F)cc2)C1` [G5], for which the inhibition at 20 µM in test [1] is 21%. Also, in test [2], the “mechanism of inhibition with respect to substrate ULight-GS” value is reported as “mixed competition mechanism” and the “mechanism of inhibition with respect to ATP” value is on record as “ATP competitive”. Also, in [3], the “inhibitory activity on CDKs” value is given as “did not show any evident inhibitory activity”. In [4], the inhibition at 1 µM was 0.3 ± 0.1%, the inhibition at 5 µM came to 13.4 ± 2%, the inhibition at 50 µM was found to be 69.4 ± 2% and the inhibition at 100 µM is over 80%. In [4], the midpoint of inhibition, the IC50, lay at 14.8 ± 0.55 µM. Also, in test [5], the “inhibitory effect on MEK1” value is given as “only marginally affected”. The “inhibitory effect on AMPK1α” value in test [6] is “only marginally affected”.

With `O=C(Nc1ccccn1)C1CCN(C(=O)CCc2ccccc2F)C1` (stereo not shown) [G12], the “inhibitory effect on ABL” value in test [7] is given as “no inhibitory effect”. Besides, the inhibition at 20 µM in test [8] turned out to be 50%. The inhibition at 20 µM in [9] came out at 20%. Also, in test [2], the “mechanism of inhibition with respect to substrate ULight-GS” value was “did not compete with the substrate” and the “mechanism of inhibition with respect to ATP” value is reported as “ATP competitive”. In test [4], this compound gave an inhibition at 1 µM of 8.5 ± 0.1%, an inhibition at 5 µM of 15.2 ± 2.7%, an inhibition at 50 µM of 71.4 ± 1.7% and an inhibition at 100 µM of over 80%. Besides, the IC50 (commonly the concentration at which inhibition is half-maximal) in test [4] amounted to 15.2 ± 1.34 µM. Besides, in [10], the “inhibitory effect on MLK1” value is “no inhibition”.
